Data on twelve compounds can be found in US8871753B2, “Macrocyclic compounds and their use as kinase inhibitors” (Incyte Corporation, priority 2008, dated 2014).

Structures can show the parent of a compound that is named as a salt. Where two headings read alike, the source gives them in different places.

Common to all, as to type: biochemical
One experiment deals with TYK2 (Homo sapiens, UniProt P29597). Description: TYK2 kinase inhibition (Table A1).
The target in experiment [1] is T1, human JAK3 (a.a. 781-1124) (Homo sapiens, UniProt P52333).
T1 construct: JAK3 (a.a. 781-1124); His tag (N); made in house; host or cells: insect cells (baculovirus)
T1 sequence (P52333 781-1124): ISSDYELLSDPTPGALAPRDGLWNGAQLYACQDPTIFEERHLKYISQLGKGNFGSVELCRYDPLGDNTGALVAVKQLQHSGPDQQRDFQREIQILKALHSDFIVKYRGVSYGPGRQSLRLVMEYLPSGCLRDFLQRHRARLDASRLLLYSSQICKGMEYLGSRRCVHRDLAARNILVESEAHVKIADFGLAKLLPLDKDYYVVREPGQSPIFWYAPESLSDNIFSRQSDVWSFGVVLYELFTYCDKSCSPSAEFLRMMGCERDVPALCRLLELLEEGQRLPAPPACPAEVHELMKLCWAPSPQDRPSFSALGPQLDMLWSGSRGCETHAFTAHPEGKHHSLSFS
Put plainly: In vitro JAK kinase assay (HTRF, phosphorylation of a biotinylated peptide), JAK3. The essentials:
(§1)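 Kinase reactions ran at room temperature for 1 h with ATP matched per isoform (JAK1 90 μM, JAK2 30 μM, JAK3 3 μM). After an EDTA stop, the phosphorylated biotin-peptide was read by HTRF using Eu-Py20 and SA-APC after 40 min binding.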
For orientation: In TR-FRET formats the signal depends on donor and acceptor labels being close together.

Experiment [2] has as its target T2, Recombinant Human Anaplastic Lymphoma Kinase (Homo sapiens, UniProt Q9UM73).
T2 construct: purchased Invitrogen, Carlsbad, Calif
Put plainly: ALK HTRF kinase assay. The essentials:
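IC50 was obtained from a logistic fit of signal versus log inhibitor concentration, using pre- and post-transition baselines and a Hill slope. The signal reported tyrosine phosphorylation of a biotinylated peptide by recombinant human kinase, detected as Eu-to-APC energy transfer.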

For experiment [3], the target named is T3, human JAK2 (a.a. 828-1132) (Homo sapiens, UniProt O60674).
T3 construct: JAK2 (a.a. 828-1132); His tag (N); made in house; host or cells: insect cells (baculovirus)
T3 sequence (O60674 828-1132): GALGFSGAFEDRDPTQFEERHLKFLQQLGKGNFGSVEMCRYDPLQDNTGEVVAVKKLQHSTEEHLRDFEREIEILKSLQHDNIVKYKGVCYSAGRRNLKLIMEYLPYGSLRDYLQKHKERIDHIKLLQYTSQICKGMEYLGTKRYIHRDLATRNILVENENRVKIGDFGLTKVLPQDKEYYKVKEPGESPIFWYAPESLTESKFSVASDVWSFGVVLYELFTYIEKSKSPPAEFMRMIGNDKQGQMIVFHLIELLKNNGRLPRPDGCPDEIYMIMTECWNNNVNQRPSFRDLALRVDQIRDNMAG
Description: In vitro JAK kinase assay (HTRF, phosphorylation of a biotinylated peptide), JAK2. The essentials:
as §1

The target of experiment [4] is T4, human JAK1 (a.a. 837-1142) (Homo sapiens, UniProt P23458).
T4 construct: human JAK1 (a.a. 837-1142); His tag (N); made in house; host or cells: insect cells (baculovirus)
T4 sequence (P23458 849-1154): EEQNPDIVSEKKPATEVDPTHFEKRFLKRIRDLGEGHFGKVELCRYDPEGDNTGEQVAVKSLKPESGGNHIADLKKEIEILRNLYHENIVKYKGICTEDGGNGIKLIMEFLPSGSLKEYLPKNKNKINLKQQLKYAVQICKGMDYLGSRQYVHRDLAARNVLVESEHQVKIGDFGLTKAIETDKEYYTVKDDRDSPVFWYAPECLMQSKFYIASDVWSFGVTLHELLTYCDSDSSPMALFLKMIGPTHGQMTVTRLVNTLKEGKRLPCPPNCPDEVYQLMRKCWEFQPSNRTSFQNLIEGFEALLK
Put plainly: In vitro JAK kinase assay (HTRF, phosphorylation of a biotinylated peptide), JAK1. Conditions: read-out: JAK1 IC50. In short, it runs like this:
as §1

Where [5] appears, read: method AA1 (3 μM ATP) or AA2 (1000 μM ATP), not stated per value.
Setting [6] is: compound at 500 nM or 1 mM, 90 μM ATP.
[7] abbreviates: method AA1 (30 μM ATP) or AA2 (1000 μM ATP), not stated per value.
The mark [8] stands for this setting: method AA1 (90 μM ATP) or AA2 (1000 μM ATP), not stated per value.
Setting [9] is: compound at a concentration of 500 nM or 1 mM (not specified), cells shown as percentage.

TYK2, sequence (P29597 whole entry): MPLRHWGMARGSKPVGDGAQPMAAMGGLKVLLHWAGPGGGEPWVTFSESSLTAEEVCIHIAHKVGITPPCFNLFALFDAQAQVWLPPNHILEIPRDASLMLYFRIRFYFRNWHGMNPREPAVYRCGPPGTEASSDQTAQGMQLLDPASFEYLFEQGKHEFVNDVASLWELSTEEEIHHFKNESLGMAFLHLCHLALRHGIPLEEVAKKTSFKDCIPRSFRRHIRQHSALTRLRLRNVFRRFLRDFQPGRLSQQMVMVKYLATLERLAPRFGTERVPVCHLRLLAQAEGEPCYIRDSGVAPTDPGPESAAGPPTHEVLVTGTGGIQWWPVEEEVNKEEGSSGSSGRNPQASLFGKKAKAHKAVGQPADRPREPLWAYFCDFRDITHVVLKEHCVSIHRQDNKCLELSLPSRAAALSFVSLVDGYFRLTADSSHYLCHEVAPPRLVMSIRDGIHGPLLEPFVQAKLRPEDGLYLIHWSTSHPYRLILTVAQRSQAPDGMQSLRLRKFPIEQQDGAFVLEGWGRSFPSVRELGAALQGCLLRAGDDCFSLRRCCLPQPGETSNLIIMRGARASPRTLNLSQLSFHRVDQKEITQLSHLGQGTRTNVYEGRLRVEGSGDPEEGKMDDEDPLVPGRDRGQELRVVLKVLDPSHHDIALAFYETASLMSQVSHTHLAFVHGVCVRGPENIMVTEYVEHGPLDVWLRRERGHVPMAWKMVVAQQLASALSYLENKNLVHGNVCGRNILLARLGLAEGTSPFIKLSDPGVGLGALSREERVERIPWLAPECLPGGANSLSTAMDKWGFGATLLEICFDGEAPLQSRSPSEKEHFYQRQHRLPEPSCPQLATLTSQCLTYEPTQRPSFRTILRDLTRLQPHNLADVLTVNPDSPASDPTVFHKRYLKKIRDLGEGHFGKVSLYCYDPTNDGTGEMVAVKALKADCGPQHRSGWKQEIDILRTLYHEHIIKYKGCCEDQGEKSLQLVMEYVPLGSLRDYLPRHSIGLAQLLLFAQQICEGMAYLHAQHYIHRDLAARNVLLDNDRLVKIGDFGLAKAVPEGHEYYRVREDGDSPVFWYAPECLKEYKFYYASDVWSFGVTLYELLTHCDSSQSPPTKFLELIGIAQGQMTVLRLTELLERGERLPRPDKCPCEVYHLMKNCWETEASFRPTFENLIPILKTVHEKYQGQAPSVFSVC
T2 sequence (Q9UM73 19-1620): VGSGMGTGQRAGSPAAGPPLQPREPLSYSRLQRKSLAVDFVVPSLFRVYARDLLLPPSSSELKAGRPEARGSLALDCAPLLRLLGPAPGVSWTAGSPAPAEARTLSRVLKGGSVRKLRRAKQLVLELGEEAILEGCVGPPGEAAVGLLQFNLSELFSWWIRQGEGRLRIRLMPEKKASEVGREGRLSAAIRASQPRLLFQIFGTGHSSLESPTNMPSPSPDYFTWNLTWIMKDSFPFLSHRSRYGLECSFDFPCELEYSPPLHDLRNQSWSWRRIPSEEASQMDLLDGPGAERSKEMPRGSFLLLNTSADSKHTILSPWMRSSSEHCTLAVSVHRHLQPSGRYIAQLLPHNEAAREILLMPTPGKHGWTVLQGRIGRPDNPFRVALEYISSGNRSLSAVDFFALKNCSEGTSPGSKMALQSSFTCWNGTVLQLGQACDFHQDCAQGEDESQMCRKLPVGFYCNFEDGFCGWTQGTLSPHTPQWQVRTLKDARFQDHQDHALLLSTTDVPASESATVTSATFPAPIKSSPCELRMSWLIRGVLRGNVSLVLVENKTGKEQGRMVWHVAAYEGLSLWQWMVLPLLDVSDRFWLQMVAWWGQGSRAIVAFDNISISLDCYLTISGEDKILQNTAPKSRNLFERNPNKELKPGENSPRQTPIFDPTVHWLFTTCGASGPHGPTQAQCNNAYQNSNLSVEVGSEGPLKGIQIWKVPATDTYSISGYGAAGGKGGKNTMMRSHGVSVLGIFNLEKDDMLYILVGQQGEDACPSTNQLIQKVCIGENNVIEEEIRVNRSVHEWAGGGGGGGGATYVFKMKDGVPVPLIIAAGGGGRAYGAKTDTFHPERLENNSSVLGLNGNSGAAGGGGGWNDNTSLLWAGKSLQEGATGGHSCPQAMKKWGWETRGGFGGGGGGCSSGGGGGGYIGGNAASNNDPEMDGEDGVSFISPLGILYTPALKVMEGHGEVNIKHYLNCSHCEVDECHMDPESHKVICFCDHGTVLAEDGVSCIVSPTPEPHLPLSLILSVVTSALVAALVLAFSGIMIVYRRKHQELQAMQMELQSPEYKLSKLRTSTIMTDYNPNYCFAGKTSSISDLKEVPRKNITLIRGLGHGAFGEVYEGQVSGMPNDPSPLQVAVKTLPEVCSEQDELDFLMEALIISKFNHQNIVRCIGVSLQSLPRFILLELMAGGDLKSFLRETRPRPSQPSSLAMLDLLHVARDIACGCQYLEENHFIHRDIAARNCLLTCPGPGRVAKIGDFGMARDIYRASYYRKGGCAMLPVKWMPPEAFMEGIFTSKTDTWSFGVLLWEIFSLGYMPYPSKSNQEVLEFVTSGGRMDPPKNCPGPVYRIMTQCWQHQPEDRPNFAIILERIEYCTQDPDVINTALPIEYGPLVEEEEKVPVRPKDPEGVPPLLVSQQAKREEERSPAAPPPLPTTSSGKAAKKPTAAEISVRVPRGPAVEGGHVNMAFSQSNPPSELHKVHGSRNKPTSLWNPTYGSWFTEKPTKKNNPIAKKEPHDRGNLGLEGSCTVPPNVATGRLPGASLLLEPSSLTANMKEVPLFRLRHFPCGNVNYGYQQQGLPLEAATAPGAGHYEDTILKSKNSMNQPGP

A word on the IC50: it is the concentration that inhibits the measured activity by half. For the compound `N#Cc1ccc(N2CCN(C(=O)Nc3ccc4cc3CCc3cncc(c3)Nc3ncc(Cl)c(n3)N4)CC2)cc1` [Example B303, N-[6-Chloro-2,4,8,18,22-pentaazatetracyclo[14.3.1.1(3,7).1(9,13)]docosa-1(20),3(22),4,6,9(21),10,12,16,18-nonaen-12-yl]-4-(4-cyanophenyl)piperazine-1-carboxamide tris(trifluoroacetate)], the 50% inhibitory concentration (IC50) is 36 nM on TYK2 (Table B1), more than 400 nM in experiment [1] (Table B1), 161 nM in experiment [3] (Table B1) and 19 nM in experiment [4] (Table B1). For the same compound, in experiment [2] (percentage inhibition of the example compound at a concentration of 500 nM or 1 mM (not specified which)), the “ALK % of inhibition at a concentration of 500 nM or 1 mM” value (“ALK % of inhibition” below) is reported as 81%.

With `Cc1ccc(N2CCC(CC(=O)Nc3ccc4cc3CCc3cncc(c3)Nc3ncc(Cl)c(n3)N4)CC2)nn1` [Example A173, N-[6-Chloro-2,4,8,18,22-pentaazatetracyclo[14.3.1.1(3,7).1(9,13)]docosa-1(20),3(22),4,6,9(21),10,12,16,18-nonaen-12-yl]-2-[1-(6-methylpyridazin-3-yl)piperidin-4-yl]acetamide tris(trifluoroacetate)], the IC50 was 105 nM on TYK2, more than 1000 nM in experiment [1] (setting [5]), 89 nM in experiment [3] (setting [7]) and 8 nM in experiment [4] (setting [8]). For the same compound, the “ALK % of inhibition” value in experiment [2] (setting [6]) came out at 40%.

For `N#Cc1ccccc1S(=O)(=O)N1CCC(CC(=O)Nc2ccc3cc2CCc2cncc(c2)Nc2ncc(Cl)c(n2)N3)CC1` [Example A198, N-[6-Chloro-2,4,8,18,22-pentaazatetracyclo[14.3.1.1(3,7).1(9,13)]docosa-1(20),3(22),4,6,9(21),10,12,16,18-nonaen-12-yl]-2-{1-[(2-cyanophenyl)sulfonyl]piperidin-4-yl}acetamide bis(trifluoroacetate)], the IC50 on TYK2 was 50 nM; in experiment [1] (setting [5]), more than 200 nM; in experiment [3] (setting [7]) it was 50 nM; in experiment [4] (setting [8]), 0.4 nM. The “ALK % of inhibition” value in experiment [2] (setting [6]) turned out to be 56%.

Take `O=S(=O)(Nc1ccc2cc1CCc1cccc(c1)Nc1ncc(Cl)c(n1)N2)c1ccccc1Cl` [Example B137, 2-Chloro-N-[6-chloro-2,4,8,22-tetraazatetracyclo[14.3.1.1(3,7).1(9,13)]docosa-1(20),3(22),4,6,9(21),10,12,16,18-nonaen-12-yl]benzenesulfonamide trifluoroacetate]: the IC50 against TYK2 (Table B1) came to 0.27 nM; in experiment [1] (Table B1) it was 6.4 nM; in experiment [2] (Table B1, cells without percent sign), 580 nM; in experiment [3] (Table B1) it was 0.11 nM; in experiment [4] (Table B1), 0.42 nM.

Turning to `Cn1cnc(S(=O)(=O)N2CCC(CC(=O)Nc3ccc4cc3CCc3cncc(c3)Nc3ncc(Cl)c(n3)N4)CC2)c1` [Example A229, N-[6-Chloro-2,4,8,18,22-pentaazatetracyclo[14.3.1.1(3,7).1(9,13)]docosa-1(20),3(22),4,6,9(21),10,12,16,18-nonaen-12-yl]-2-{1-[(1-methyl-1H-imidazol-4-yl)sulfonyl]piperidin-4-yl}acetamide bis(trifluoroacetate)], the IC50 was 120 nM on TYK2, more than 400 nM in experiment [1] (setting [5]), 75 nM in experiment [3] (setting [7]) and 8 nM in experiment [4] (setting [8]). The “ALK % of inhibition” value in experiment [2] (setting [6]) worked out at 55%.

As to `CCNC(=O)N1CC[C@@H](C(=O)Nc2ccc3cc2CCc2cccc(c2)Nc2ncc(Cl)c(n2)N3)C1` [Example A53, (3R)—N(3)-[6-Chloro-2,4,8,22-tetraazatetracyclo[14.3.1.1(3,7).1(9,13)]docosa-1(20),3(22),4,6,9(21),10,12,16,18-nonaen-12-yl]-N(1)-ethylpyrrolidine-1,3-dicarboxamide trifluoroacetate], the IC50 against TYK2 was 14 nM; in experiment [1] (setting [5]), 3.2 nM; in experiment [3] (setting [7]) it was 1.2 nM; in experiment [4] (setting [8]), 6.1 nM. Moreover, in experiment [2] (setting [6]), the “ALK % of inhibition” value was determined as 35%.

As to `O=C(NC1CCCC1)N1CCN(c2cc(-c3cc4cc(c3)Nc3ncc(Cl)c(n3)Nc3cccc(c3)OCC4)ccn2)CC1` [Example D46, 4-{4-[6-Chloro-14-oxa-2,4,8,23-tetraazatetracyclo[15.3.1.1(3,7).1(9,13)]tricosa-1(21),3(23),4,6,9(22),10,12,17,19-nonaen-19-yl]pyridin-2-yl}-N-cyclopentylpiperazine-1-carboxamide bis(trifluoroacetate)], the IC50 at TYK2 (Table D1) was found to be 8.2 nM; in experiment [1] (Table D1), 21 nM; in experiment [2] (Table D1, 90 μM ATP), 390 nM; in experiment [3] (Table D1) it was 0.9 nM; in experiment [4] (Table D1) it was 4.7 nM.

On to `O=C(NCCNC(=O)c1ccccc1)Nc1ccc2cc1CCc1cccc(c1)Nc1ncc(Cl)c(n1)N2` [Example B189, N-{2-[({[6-Chloro-2,4,8,22-tetraazatetracyclo[14.3.1.1(3,7).1(9,13)]docosa-1(20),3(22),4,6,9(21),10,12,16,18-nonaen-12-yl]amino}carbonyl)amino]ethyl}benzamide trifluoroacetate], for which the half-maximal inhibitory concentration (IC50) at TYK2 (Table B1) was 22 nM; in experiment [1] (Table B1), 35 nM; in experiment [3] (Table B1) it was 6.7 nM; in experiment [4] (Table B1), 5 nM. Further, in experiment [2] (setting [9]), the “ALK % of inhibition” value was 15%.

Take `Cc1cc(C)c(C#N)c(N2CCC(CC(=O)Nc3ccc4cc3CCc3cncc(c3)Nc3ncc(Cl)c(n3)N4)CC2)n1` [Example A239, N-[6-Chloro-2,4,8,18,22-pentaazatetracyclo[14.3.1.1(3,7).1(9,13)]docosa-1(20),3(22),4,6,9(21),10,12,16,18-nonaen-12-yl]-2-[1-(3-cyano-4,6-dimethylpyridin-2-yl)piperidin-4-yl]acetamide tris(trifluoroacetate)]: the IC50 at TYK2 is more than 400 nM; in experiment [1] (setting [5]) it was more than 400 nM; in experiment [3] (setting [7]), 226 nM; in experiment [4] (setting [8]), 16 nM. The “ALK % of inhibition” value in experiment [2] (setting [6]) worked out at 17%.

As to `CC(=O)N1CCC(C(=O)Nc2ccc3cc2CCc2cccc(c2)Nc2ncc(Cl)c(n2)N3)CC1` [Example A29, 1-Acetyl-N-[6-chloro-2,4,8,22-tetraazatetracyclo[14.3.1.1(3,7).1(9,13)]docosa-1(20),3(22),4,6,9(21),10,12,16,18-nonaen-12-yl]piperidine-4-carboxamide trifluoroacetate], the IC50 at TYK2 was 65 nM; in experiment [1] (setting [5]), 31 nM; in experiment [3] (setting [7]), 31 nM; in experiment [4] (setting [8]) it was 42 nM. Besides, the “ALK % of inhibition” value in experiment [2] (setting [6]) was 30%.

As for `O=C(Nc1ccc2cc1CCc1cncc(c1)Nc1ncc(Cl)c(n1)N2)N1CCN(c2ccc(F)cc2)CC1` [Example B297, N-[6-Chloro-2,4,8,18,22-pentaazatetracyclo[14.3.1.1(3,7).1(9,13)]docosa-1(20),3(22),4,6,9(21),10,12,16,18-nonaen-12-yl]-4-(4-fluorophenyl)piperazine-1-carboxamide tris(trifluoroacetate)], the IC50 is 36 nM at TYK2 (Table B1), more than 400 nM in experiment [1] (Table B1), 67 nM in experiment [3] (Table B1) and 27 nM in experiment [4] (Table B1). Further, the “ALK % of inhibition” value in experiment [2] (setting [9]) worked out at 66%.

`Cc1cc(C(=O)N2CCC(CCC(=O)Nc3ccc4cc3CCc3cccc(c3)Nc3ncc(Cl)c(n3)N4)CC2)no1` [Example A124, N-[6-Chloro-2,4,8,22-tetraazatetracyclo[14.3.1.1(3,7).1(9,13)]docosa-1(20),3(22),4,6,9(21),10,12,16,18-nonaen-12-yl]-3-{1-[(5-methylisoxazol-3-yl)carbonyl]piperidin-4-yl}propanamide trifluoroacetate]: the IC50 against TYK2 was 5.4 nM; in experiment [1] (setting [5]), 39 nM; in experiment [3] (setting [7]) it was 2.5 nM; in experiment [4] (setting [8]) it was 0.6 nM. Further, in experiment [2] (setting [6]), the “ALK % of inhibition” value was found to be 34%.
